Results published in patent US20050282743A1, “Molecular interactions in cells” (Arbor Vita Corporation, priority 2001, published 2005).
Where “and” joins values, the source holds several entries; their conditions need not be identical. Equal entries are not always repeated. Where two headings read alike, the source gives them in different places. Blank lines part the entries; values can stand above or below the compound they belong to. Peptide text beside a SMILES is read from it. * marks the point of attachment. Biotin = O=C1N[C@H]2[C@H](CS[C@H]2CCCCC(=O)*)N1

Experiments:
Assay type in all cases: binding
DLG1(1-2) = biological target: T1, DLG1(1-2) (Homo sapiens, UniProt Q12959); test: G assay peptide titration, dissociation constants (Example 3, TABLE 4); conditions: biotinylated C-terminal 20-mer, 450 nm, 30 min
T1 construct: made in house; host or cells: E. coli (DH5alpha, BL21 or JM109)
T1 sequence (Q12959 213-413 limits assumed): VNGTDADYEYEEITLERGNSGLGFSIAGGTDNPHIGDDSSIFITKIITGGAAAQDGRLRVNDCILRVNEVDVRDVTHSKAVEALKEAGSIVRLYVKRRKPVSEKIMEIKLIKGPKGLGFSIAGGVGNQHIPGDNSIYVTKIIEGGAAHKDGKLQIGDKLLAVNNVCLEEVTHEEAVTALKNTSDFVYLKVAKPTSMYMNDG
Protocol: (§1) Binding between these molecules was assessed using a modified ELISA. Briefly, a GST-TIP-1 fusion was produced that contained the entire PDZ domain of human TIP-1 (Insert as in EXAMPLE 2). In addition, biotinylated peptides corresponding to the C-terminal 20 amino acids of Tax and CD95 were synthesized and purified by HPLC. Binding between these entities was detected through a colorimetric assay using avidin-HRP to bind the biotin and a peroxidase substrate (G-assay, as described supra). By titrating the amount of peptide and protein added to these reactions, dissociation constants (Kd) were determined as an indication of relative affinity of the peptide and fusion protein association.
(§2) (at last wash leave PBS in wells until immediately adding next step) • 6) Add proteins at 50 ul per well on ice (1 to 2 hrs at 4° C.) • 7) Prepare Peptides in 2% BSA (2 ml/row or /columns) • 8) 3× wash with cold PBS • 9) Add peptides at 50 ul per well on ice (time on/time off)
(§3) Using the protocol for the ‘G’ assay described above, dissociation constants were determined by titrating the amount of peptide against a set concentration of PDZ-containing protein. Kd values were determined by identifying the peptide concentration that gave half-maximal binding to the PDZ protein. Different concentrations of PDZ-containing protein were plated in order to achieve maximal peptide binding values that were less than the absorbance maximum of the ELISA plate reader.
(§4) Proteins on the left are GST fusions to the PDZ domain(s) of protein indicated. Numbers in parenthesis indicate the number of PDZ domains present in the fusion construct, from the amino-terminus of the first number listed to the carboxyl terminus of the second. PDZ Ligands are listed across the top of the table, representing biotinylated peptides corresponding to the carboxy-terminal 20 amino acids of each protein. The first three columns following the PDZ indicate the concentration of fusion protein plated for the G assay, followed by the wavelength and time of reading from addition of TMB substrate. 450 nm indicates a reaction halted by addition of sulfuric acid and absorbance read at 450 nm. Values beneath each ligand indicate first the maximum absorbance followed by the observed Kd in uM. Numbers in the squares are the average of duplicate or quadruplicate reactions. Blank squares indicate that the Kd for the interaction was not tested under those conditions on the same sample plate. No binding to GST alone is observed.

TIP-1 (GST-TIP-1 fusion) = biological target: T2, TIP-1 (GST-TIP-1 fusion) (Homo sapiens, UniProt O14907, I73S); test: as above; conditions: for OD (maximum absorbance) / Kd: biotinylated C-terminal 20-mer, 450 nm, 30 min
T2 construct: made in house; host or cells: E. coli DH5alpha
T2 sequence (O14907 3-123 I73S): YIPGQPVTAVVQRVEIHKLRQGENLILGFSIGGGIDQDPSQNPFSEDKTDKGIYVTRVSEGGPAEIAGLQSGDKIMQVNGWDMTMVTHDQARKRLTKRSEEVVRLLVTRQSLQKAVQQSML
Protocol: as §1, §2, §3, §4

Mint 1 (PDZ Domain 1, 2) = biological target: T3, Mint 1 (PDZ Domain 1, 2) (Homo sapiens, UniProt Q02410); test: G' assay, TABLE 12; conditions: A450 nm class of biotinylated PL peptide bound; 0 in conc columns = peptide 10 uM, protein 5 ug/ml
T3 construct: When more than one PDZ domain was cloned, the DNA portion cloned represents the PDZ domains and the cDNA portion located between individual domains; made in house; host or cells: E. coli (DH5alpha, BL21 or JM109)
T3 sequence (Q02410 652-828 limits assumed): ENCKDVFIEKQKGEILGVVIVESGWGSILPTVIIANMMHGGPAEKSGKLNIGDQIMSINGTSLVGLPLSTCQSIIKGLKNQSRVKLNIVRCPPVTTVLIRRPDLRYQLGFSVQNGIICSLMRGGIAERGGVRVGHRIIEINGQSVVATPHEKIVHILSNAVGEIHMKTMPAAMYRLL
Procedure, shortened: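 PL peptide binding to PDZ domain protein, peptide at 10 uM; protein at 5 ug/ml unless another concentration is listed for Kd determination. Bound peptide read at A450 nm and binned into classes 0–5.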

OD (maximum absorbance) (DLG1(1-2); DLG1(1-2) plated at 0.3 ug/ml): 2.6 and 2.1
Kd (DLG1(1-2); DLG1(1-2) plated at 0.3 ug/ml, read-out: Kd): 15 µM and 20 µM
OD (maximum absorbance) (TIP-1 (GST-TIP-1 fusion); TIP-1 plated at 0.3 ug/ml): 2.6 and 3.5
Kd (TIP-1 (GST-TIP-1 fusion); TIP-1 plated at 0.3 ug/ml, read-out: Kd): 20 µM and 25 µM
SMILES: CC[C@H](C)[C@H](NC(=O)[C@H](CCC(=O)O)NC(=O)[C@H](CC(N)=O)NC(=O)[C@H](CCCNC(=N)N)NC(=O)[C@H](Cc1ccccc1)NC(=O)[C@H](CC(N)=O)NC(=O)[C@H](CO)NC(=O)[C@H](CC(N)=O)NC(=O)[C@H](CCC(=O)O)NC(=O)[C@H](CO)NC(=O)[C@H](CC(=O)O)NC(=O)[C@H](CO)NC(=O)[C@@H](NC(=O)[C@@H](NC(=O)[C@H](CC(=O)O)NC(=O)[C@H](CCCCN)NC(=O)CCCC[C@@H]1SC[C@@H]2NC(=O)N[C@@H]21)[C@@H](C)CC)[C@@H](C)O)C(=O)N[C@@H](CCC(N)=O)C(=O)N[C@@H](CO)C(=O)N[C@@H](CC(C)C)C(=O)N[C@H](C(=O)O)C(C)C [CD95] (Biotin-KDITSDSENSNFRNEIQSLV-OH; C-terminus assumed)

SMILES: CC(C)C[C@H](NC(=O)[C@H](C)NC(=O)[C@@H](NC(=O)[C@@H](NC(=O)[C@H](Cc1c[nH]cn1)NC(=O)[C@H](CC(C)C)NC(=O)CNC(=O)[C@H](CCC(N)=O)NC(=O)CNC(=O)CNC(=O)[C@H](C)NC(=O)[C@H](C)NC(=O)[C@H](CCCNC(=N)N)NC(=O)[C@H](C)NC(=O)[C@H](CO)NC(=O)[C@H](CC(=O)O)NC(=O)[C@H](CC(=O)O)NC(=O)[C@H](Cc1c[nH]c2ccccc12)NC(=O)[C@H](C)NC(=O)CCCC[C@@H]1SC[C@@H]2NC(=O)N[C@@H]21)C(C)C)[C@@H](C)O)C(=O)O [LPAP] (Biotin-AWDDSARAAGGQGLHVTAL-OH; C-terminus assumed)
Classification (Mint 1 (PDZ Domain 1, 2)): 1 (A450 nm 0-1)

SMILES: CC[C@H](C)[C@H](NC(=O)[C@H](CCC(N)=O)NC(=O)CCCC[C@@H]1SC[C@@H]2NC(=O)N[C@@H]21)C(=O)N[C@@H](CO)C(=O)N1CCC[C@H]1C(=O)NCC(=O)NCC(=O)N[C@@H](CC(C)C)C(=O)N[C@@H](CCC(=O)O)C(=O)N1CCC[C@H]1C(=O)N1CCC[C@H]1C(=O)N[C@@H](CO)C(=O)N[C@@H](CCC(=O)O)C(=O)N[C@@H](CCCCN)C(=O)N[C@@H](Cc1c[nH]cn1)C(=O)N[C@@H](Cc1ccccc1)C(=O)N[C@@H](CCCNC(=N)N)C(=O)N[C@@H](CCC(=O)O)C(=O)N[C@H](C(=O)N[C@@H](CCC(=O)O)C(=O)N[C@H](C(=O)O)C(C)C)[C@@H](C)O [Tax]
Kd (DLG1(1-2); Kd, DLG1(1-2) plated at 0.1 ug/ml): 0.13 µM and 0.2 µM
Kd (TIP-1 (GST-TIP-1 fusion); Kd, TIP-1 plated at 0.1 ug/ml): 0.005 µM
binding to TIP-1 relative to CD95 (comparison of dissociation constants) (TIP-1 (GST-TIP-1 fusion); Tax:TIP-1 versus CD95:TIP-1): > 3000 fold
OD (maximum absorbance) (TIP-1 (GST-TIP-1 fusion); TIP-1 plated at 0.1 ug/ml): 3.3 and 2.1
affinity for GST-TIP-1 relative to CD95 (FIG. 2A) (TIP-1 (GST-TIP-1 fusion); equivalent peptide concentrations, equivalent amount of GST-TIP-1): much higher affinity than does CD95
